According to ChEMBL document CHEMBL5236638, “Optimization of First-in-Class Dual-Acting FFAR1/FFAR4 Allosteric Modulators with Novel Mode of Action” (ACS Med Chem Lett, 2022):

Tests used:
Assay type in all cases: cell-based
[1] = molecular target: Free fatty acid receptor 1 (Homo sapiens, UniProt O14842); test: Agonist activity at N-terminal FLAG tagged human FFAR1 transfected in African green monkey COS-7 cells assessed as accumulation of inositol phosphate incubated for 90 mins by TopCount NXT counter based analysis
Sequence of Free fatty acid receptor 1 (O14842 whole entry): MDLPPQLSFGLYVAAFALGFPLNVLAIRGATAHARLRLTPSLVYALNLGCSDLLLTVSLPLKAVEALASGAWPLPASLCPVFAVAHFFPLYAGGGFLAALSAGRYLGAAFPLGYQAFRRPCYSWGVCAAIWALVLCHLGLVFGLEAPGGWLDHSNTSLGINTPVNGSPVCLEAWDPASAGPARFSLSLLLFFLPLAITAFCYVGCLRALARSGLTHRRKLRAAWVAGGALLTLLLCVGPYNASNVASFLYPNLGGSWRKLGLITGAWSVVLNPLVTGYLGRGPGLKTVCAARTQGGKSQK

[2] = molecular target: T1, Free fatty acid receptor 4 (Homo sapiens) (UniProt Q5NUL3); test: Agonist activity at N-terminal FLAG tagged human FFAR4 transfected in African green monkey COS-7 cells assessed as accumulation of inositol phosphate at 10 uM incubated for 90 mins by TopCount NXT counter based analysis relative to control
T1 sequence (whole entry): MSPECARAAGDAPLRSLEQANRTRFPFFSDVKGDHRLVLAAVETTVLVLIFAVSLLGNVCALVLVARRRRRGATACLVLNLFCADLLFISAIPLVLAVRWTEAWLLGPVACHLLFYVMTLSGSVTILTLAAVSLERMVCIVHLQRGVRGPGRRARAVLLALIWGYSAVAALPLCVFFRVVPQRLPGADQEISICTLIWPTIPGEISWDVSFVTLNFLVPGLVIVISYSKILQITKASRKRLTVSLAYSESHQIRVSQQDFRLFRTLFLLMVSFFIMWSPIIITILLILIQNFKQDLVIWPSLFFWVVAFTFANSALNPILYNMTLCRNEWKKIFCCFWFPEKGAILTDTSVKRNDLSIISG

[3] = molecular target: T2, Free fatty acid receptor 4 (Homo sapiens, UniProt Q5NUL3); test: Agonist activity at N-terminal FLAG tagged human FFAR4 transfected in African green monkey COS-7 cells assessed as accumulation of inositol phosphate incubated for 90 mins by TopCount NXT counter based analysis
T2 sequence (Q5NUL3 whole entry): T1 sequence (whole entry)

Compound Cc1ccc(Nc2nc(N)nc(COc3cc(N4CCCC4=O)cc(C(F)(F)F)c3)n2)cc1Cl has an EC50 [1] of 3190 nM.
Cc1cc(=O)oc2cc(OCc3nc(N)nc(Nc4ccc5c(c4)COC5)n3)ccc12 gave an EC50 [1] of 1330 nM.
For Cc1cccc(CCNc2nc(N)nc(COc3cc(C)cc(N4CCCC4=O)c3)n2)c1, the EC50 [1] was 7 nM.
With Cc1cc(=O)oc2cc(OCc3nc(N)nc(Nc4ccc(Cl)cc4)n3)ccc12 the EC50 [1] was 32500 nM.
Work on Cc1ccc(Nc2nc(N)nc(COc3cccc(N4CCCC4=O)c3C)n2)cc1Cl yielded an Emax ([2]; filed as agonist) of 46%, an EC50 [3] of 14400 nM and an EC50 [1] of 11100 nM.
Work on Cc1cc(OCc2nc(N)nc(NCCc3cc(C)ccc3F)n2)cc(N2CCCC2=O)c1 yielded an Emax ([2]; filed as agonist) of 40%, an EC50 [3] of 386 nM and an EC50 [1] of 3 nM.
Cc1cc(=O)oc2cc(OCc3nc(N)nc(Nc4ccc5ccccc5c4)n3)ccc12 was tested, and the EC50 [1] was 700 nM.
For Cc1ccc(Nc2nc(N)nc(COc3ccc(Cl)c(N4CCCC4=O)c3)n2)cc1Cl, the Emax ([2]; filed as agonist) was 42%, the EC50 [3] was 3030 nM and the EC50 [1] was 2450 nM.
Cc1ccc(Nc2nc(N)nc(COc3cc(OC(F)(F)F)cc(N4CCCC4=O)c3)n2)cc1Cl gave an Emax [2] of 38% and an EC50 [3] of 2190 nM.
In the case of Cc1cc(OCc2nc(N)nc(NCCc3cccc(Cl)c3Cl)n2)cc(N2CCCC2=O)c1, the Emax [2] is reported as 31%, the EC50 [3] is reported as 9 nM and the EC50 [1] is reported as 3 nM.
In the case of Cc1cc(OCc2nc(N)nc(NCCc3cccc(OC(F)F)c3)n2)cc(N2CCCC2=O)c1, the Emax [2] is reported as 28%, the EC50 [3] is reported as 10 nM and the EC50 [1] is reported as 5 nM.
In the case of COc1ccc(Cl)cc1CCNc1nc(N)nc(COc2cc(C)cc(N3CCCC3=O)c2)n1, the Emax [2] is reported as 29%, the EC50 [3] is reported as 53 nM and the EC50 [1] is reported as 54 nM.
With Cc1cc(OCc2nc(N)nc(NCCc3cccc(C(F)(F)F)c3)n2)cc(N2CCCC2=O)c1 the Emax [2] was 35%, the EC50 [3] was 10 nM and the EC50 [1] was 12 nM.
Cc1ccc(Nc2nc(N)nc(COc3cc(Cl)cc(N4CCCC4=O)c3)n2)cc1Cl showed an Emax ([2]; filed as agonist) of 43%, an EC50 [3] of 150 nM and an EC50 [1] of 160 nM.
Compound Cc1cc(OCc2nc(N)nc(NCCc3ccc(C)cc3C)n2)cc(N2CCCC2=O)c1 has an Emax [2] of 37%, an EC50 [3] of 93 nM and an EC50 [1] of 71 nM.
Cc1cc(OCc2nc(N)nc(NCCc3ccccc3OC(F)(F)F)n2)cc(N2CCCC2=O)c1 gave an Emax [2] of 29%, an EC50 [3] of 37 nM and an EC50 [1] of 20 nM.
In the case of Cc1cc(OCc2nc(N)nc(NCCc3cc(Cl)cc(Cl)c3)n2)cc(N2CCCC2=O)c1, the Emax ([2]; filed as agonist) is reported as 49%, the EC50 [3] is reported as 7 nM and the EC50 [1] is reported as 4 nM.
Cc1ccc(Nc2nc(N)nc(COc3ccc4ccc(=O)oc4c3)n2)cc1 was tested, and the Emax ([2]; filed as agonist) was 49%, the EC50 [3] was 4390 nM and the EC50 [1] was 1280 nM.
For Cc1ccc(Nc2nc(N)nc(COc3cccc(N4CCCC4=O)c3F)n2)cc1Cl, the EC50 [1] was 14100 nM.
Compound COc1cc(OCc2nc(N)nc(Nc3ccc(C)c(Cl)c3)n2)cc(N2CCCC2=O)c1 has an Emax ([2]; filed as agonist) of 43%, an EC50 [3] of 600 nM and an EC50 [1] of 1800 nM.
Compound Cc1cc(=O)oc2cc(OCc3nc(N)nc(NCc4ccc(F)cc4)n3)ccc12 has an EC50 [1] of 7820 nM.
COc1ccccc1CCNc1nc(N)nc(COc2cc(C)cc(N3CCCC3=O)c2)n1 gave an Emax [2] of 23%, an EC50 [3] of 14 nM and an EC50 [1] of 34 nM.
For Cc1cc(OCc2nc(N)nc(NCCc3ccccc3C(F)(F)F)n2)cc(N2CCCC2=O)c1, the Emax [2] was 38%, the EC50 [3] was 10 nM and the EC50 [1] was 12 nM.
Cc1cc(OCc2nc(N)nc(NCCc3cc(F)ccc3F)n2)cc(N2CCCC2=O)c1 was tested, and the Emax [2] was 36%, the EC50 [3] was 5 nM and the EC50 [1] was 16 nM.
For Cc1ccc(Nc2nc(N)nc(COc3ccc4c(C)cc(=O)oc4c3)n2)cc1, the Emax [2] was 39%, the EC50 [3] was 1210 nM and the EC50 [1] was 1790 nM.
Compound Cc1ccc(Nc2nc(N)nc(COc3ccc4c5c(c(=O)oc4c3)CCC5)n2)cc1 has an EC50 [1] of 2220 nM.
Work on Cc1cc(OCc2nc(N)nc(NCCc3ccccc3Cl)n2)cc(N2CCCC2=O)c1 yielded an Emax [2] of 33%, an EC50 [3] of 3 nM and an EC50 [1] of 6 nM.
In the case of Cc1ccc(Nc2nc(N)nc(COc3ccc4c(C)cc(=O)oc4c3)n2)cc1C, the EC50 [1] is reported as 210 nM.
Compound Cc1cc(OCc2nc(N)nc(NCCc3ccc(Cl)c(C)c3)n2)cc(N2CCCC2=O)c1 has an Emax [2] of 30%, an EC50 [3] of 4 nM and an EC50 [1] of 14 nM.
CCc1ccc(Nc2nc(N)nc(COc3ccc4c(C)cc(=O)oc4c3)n2)cc1Cl gave an Emax ([2]; filed as agonist) of 48%, an EC50 [3] of 560 nM and an EC50 [1] of 160 nM.
Cc1cc(OCc2nc(N)nc(NCCc3c(F)cccc3F)n2)cc(N2CCCC2=O)c1 gave an Emax ([2]; filed as agonist) of 46%, an EC50 [3] of 9 nM and an EC50 [1] of 3 nM.
For Cc1cc(=O)oc2cc(OCc3nc(N)nc(Nc4ccc(C5CC5)cc4)n3)ccc12, the EC50 [1] was 700 nM.
Cc1cc(=O)oc2cc(OCc3nc(N)nc(Nc4cccc(Cl)c4)n3)ccc12 gave an EC50 [1] of 1110 nM.
Cc1cc(OCc2nc(N)nc(NCC3(c4cccc(Cl)c4)CC3)n2)cc(N2CCCC2=O)c1 gave an EC50 [1] of 48 nM.
In the case of Cc1cc(OCc2nc(N)nc(NCCc3ccccc3OC(F)F)n2)cc(N2CCCC2=O)c1, the Emax [2] is reported as 30%, the EC50 [3] is reported as 178 nM and the EC50 [1] is reported as 108 nM.
With Cc1ccc(Nc2nc(N)nc(COc3cc(C#N)cc(N4CCCC4=O)c3)n2)cc1Cl the Emax [2] was 26%, the EC50 [3] was 14300 nM and the EC50 [1] was 4170 nM.
In the case of Cc1cc(=O)oc2cc(OCc3nc(N)nc(Nc4ccc(F)cc4)n3)ccc12, the EC50 [1] is reported as 18300 nM.
Compound COc1ccc(F)cc1CCNc1nc(N)nc(COc2cc(C)cc(N3CCCC3=O)c2)n1 has an Emax [2] of 30%, an EC50 [3] of 134 nM and an EC50 [1] of 469 nM.
Compound Cc1cc(OCc2nc(N)nc(NCCc3cccc(S(F)(F)(F)(F)F)c3)n2)cc(N2CCCC2=O)c1 has an Emax ([2]; filed as agonist) of 95% and an EC50 [1] of 32 nM.
With Cc1ccc(Nc2nc(N)nc(COc3cc(N4CCCC4=O)cc(C(C)(C)C)c3)n2)cc1Cl the EC50 [3] was 640 nM.
Cc1ccc(Nc2nc(N)nc(COc3cc(N4CCCC4=O)ccc3C(F)(F)F)n2)cc1Cl showed an Emax ([2]; filed as agonist) of 41%, an EC50 [3] of 11900 nM and an EC50 [1] of 20100 nM.
COc1ccc(CCNc2nc(N)nc(COc3cc(C)cc(N4CCCC4=O)c3)n2)cc1 showed an Emax [2] of 34%, an EC50 [3] of 377 nM and an EC50 [1] of 1460 nM.
CCCc1cc(=O)oc2cc(OCc3nc(N)nc(Nc4ccc(C)cc4)n3)ccc12 showed an EC50 [1] of 2900 nM.
Cc1cc(OCc2nc(N)nc(NCCc3c(C)cccc3C)n2)cc(N2CCCC2=O)c1 gave an Emax ([2]; filed as agonist) of 44%, an EC50 [3] of 72 nM and an EC50 [1] of 25 nM.
Compound COc1ccc(OCc2nc(N)nc(Nc3ccc(C)c(Cl)c3)n2)cc1N1CCCC1=O has an Emax ([2]; filed as agonist) of 53%, an EC50 [3] of 31400 nM and an EC50 [1] of 20200 nM.
Compound Cc1ccc(Nc2nc(N)nc(COc3cccc(N4CCCCC4=O)c3)n2)cc1Cl has an Emax ([2]; filed as agonist) of 66%, an EC50 [3] of 16600 nM and an EC50 [1] of 22400 nM.
In the case of Cc1cc(OCc2nc(N)nc(Nc3ccc(C)c(Cl)c3)n2)cc(N2CCCC2=O)c1, the Emax ([2]; filed as agonist) is reported as 50%, the EC50 [3] is reported as 600 nM and the EC50 [1] is reported as 20 nM.
Cc1cc(OCc2nc(N)nc(NCCc3ccc(Cl)c(Cl)c3)n2)cc(N2CCCC2=O)c1 gave an Emax [2] of 23%, an EC50 [3] of 55 nM and an EC50 [1] of 16 nM.
Compound Cc1cc(OCc2nc(N)nc(NCCc3ccc(Cl)cc3Cl)n2)cc(N2CCCC2=O)c1 has an Emax [2] of 18%, an EC50 [3] of 25 nM and an EC50 [1] of 44 nM.
In the case of Cc1ccc(Nc2nc(N)nc(COc3cc(N4CCCC4=O)ccc3C)n2)cc1Cl, the Emax ([2]; filed as agonist) is reported as 43%, the EC50 [3] is reported as 18200 nM and the EC50 [1] is reported as 7450 nM.
Cc1cc(OCc2nc(N)nc(NCCc3ccc(Cl)cc3)n2)cc(N2CCCC2=O)c1 was tested, and the EC50 [1] was 193 nM.
For Cc1cc(OCc2nc(N)nc(NCCc3ccccc3F)n2)cc(N2CCCC2=O)c1, the EC50 [1] was 11 nM.
With Cc1ccc(Nc2nc(N)nc(COc3cccc(N4CCCS4(=O)=O)c3)n2)cc1Cl the EC50 [1] was 9700 nM.
Cc1cc(OCc2nc(N)nc(NCC(c3c(F)cccc3F)N(C)C)n2)cc(N2CCCC2=O)c1 (centres undefined) gave an EC50 [1] of 7430 nM.
Work on Cc1cc(=O)oc2cc(OCc3nc(N)nc(Nc4ccc(Cl)c(Cl)c4)n3)ccc12 yielded an EC50 [3] of 360 nM and an EC50 [1] of 780 nM.
